From the supplement of paper PMC13380429

Key:
Settings in all cases: 72 h
[1] = system: U2OS; assay: cell viability relative to DMSO; higher = less toxic
[2] = system: Calu-3; assay: as above
[3] = system: Caco-2; assay: as above
[4] = system: Vero E6; assay: as above
[5] = system: HepG2; assay: as above
[6] = system: U2OS; assay: drug sensitivity score (DSS) for viability; higher = more toxic; extreme values may be limits of the assay
[7] = system: Calu-3; assay: as above
[8] = system: Caco-2; assay: as above
[9] = system: Vero E6; assay: as above
[10] = system: HepG2; assay: as above
[11] = system: U2OS; assay: relative viability EC50 (midpoint between 100% and the lowest measured viability); higher = less toxic
[12] = system: Calu-3; assay: as above
[13] = system: Caco-2; assay: as above
[14] = system: Vero E6; assay: as above
[15] = system: HepG2; assay: as above

Row | SMILES | cell viability ([1]; 1 nM) [%] | cell viability ([1]; 10 nM) [%] | cell viability ([1]; 100 nM) [%] | cell viability ([1]; 1000 nM) [%] | cell viability ([1]; 10000 nM) [%] | cell viability ([2]; 1 nM) [%] | cell viability ([2]; 10 nM) [%] | cell viability ([2]; 100 nM) [%] | cell viability ([2]; 1000 nM) [%] | cell viability ([2]; 10000 nM) [%] | cell viability ([3]; 1 nM) [%] | cell viability ([3]; 10 nM) [%] | cell viability ([3]; 100 nM) [%] | cell viability ([3]; 1000 nM) [%] | cell viability ([3]; 10000 nM) [%] | cell viability ([4]; 1 nM) [%] | cell viability ([4]; 10 nM) [%] | cell viability ([4]; 100 nM) [%] | cell viability ([4]; 1000 nM) [%] | cell viability ([4]; 10000 nM) [%] | cell viability ([5]; 1 nM) [%] | cell viability ([5]; 10 nM) [%] | cell viability ([5]; 100 nM) [%] | cell viability ([5]; 1000 nM) [%] | cell viability ([5]; 10000 nM) [%] | drug sensitivity score [6] | drug sensitivity score [7] | drug sensitivity score [8] | drug sensitivity score [9] | drug sensitivity score [10] | relative viability EC50 [11] [µM] | relative viability EC50 [12] [µM] | relative viability EC50 [13] [µM] | relative viability EC50 [14] [µM] | relative viability EC50 [15] [µM]
1 | Cc1cc(NC(=O)C(c2ccccc2)N2CCCc3ccccc32)no1 (stereo not given) [CIM-0216] | 98.7 | 104 | 97.4 | 101 | 97 | 103 | 98.5 | 87.7 | 113 | 111 | 97.1 | 101 | 98.2 | 97.4 | 114 | 104 | 99.2 | 96.3 | 101 | 101 | 104 | 103 | 103 | 90.1 | 98.3 | 0 | 0 | 0 | 0 | 0 | > 10 | > 10 | > 10 | > 10 | > 10
2 | COc1cccc(/C=N/N=C/c2cccc(OC)c2)c1 [DMeOB] | 101 | 102 | 97.5 | 107 | 99.3 | 101 | 114 | 99.6 | 111 | 105 | 96.4 | 106 | 96.9 | 104 | 103 | 109 | 99.8 | 103 | 99.2 | 103 | 110 | 93.3 | 103 | 98.4 | 94.9 | 0 | 0 | 0 | 0 | 0 | > 10 | > 10 | > 10 | > 10 | > 10
3 | CC(C)(C)c1cc(C(=O)/C(C#N)=N/Nc2cccc(Cl)c2)no1 [ESI-09] | 98.1 | 96.1 | 98.4 | 96.1 | 87.6 | 103 | 93.7 | 91.9 | 102 | 95.9 | 99.8 | 96.1 | 104 | 96.6 | 37 | 90 | 94.2 | 91 | 99.3 | 83.3 | 109 | 102 | 102 | 103 | 31.2 | 0.2 | 0 | 3.9 | 0 | 3.5 | > 10 | > 10 | 2.75 | > 10 | 3.4
4 | CN[C@@H](C)C(=O)N[C@H](C(=O)N1CCC[C@H]1C(=O)Nc1snnc1-c1ccccc1)C1CCCCC1 [GDC-0152] | 98.1 | 109 | 95.7 | 100 | 94.3 | 104 | 106 | 97.4 | 87.9 | 84.9 | 98.4 | 104 | 98.9 | 102 | 92.2 | 97 | 98.9 | 102 | 103 | 106 | 105 | 105 | 99.6 | 97.4 | 96 | 0 | 1.1 | 0 | 0 | 0 | > 10 | > 10 | > 10 | > 10 | > 10
5 | Cc1cc(OCc2nc(-c3ccccc3Cl)cs2)ccc1OCC(=O)O [GPR120-modulator-1] | 92.3 | 96.8 | 92.2 | 102 | 94.3 | 96.4 | 99.8 | 99.6 | 110 | 86.9 | 102 | 97.5 | 103 | 98.5 | 92.8 | 101 | 102 | 102 | 97.9 | 97.1 | 104 | 93.4 | 101 | 101 | 92.8 | 0 | 0 | 0 | 0 | 0 | > 10 | > 10 | > 10 | > 10 | > 10
6 | CC(C)c1onc(-c2c(Cl)cccc2Cl)c1COc1ccc(/C=C/c2cccc(C(=O)O)c2)c(Cl)c1 [GW-4064] | 98.2 | 106 | 96.4 | 93.3 | 97.7 | 93.9 | 107 | 103 | 102 | 96.5 | 94 | 99.4 | 102 | 91 | 81.4 | 95.5 | 99.8 | 94 | 93.8 | 95.7 | 105 | 103 | 92.4 | 99.2 | 93.8 | 0 | 0 | 1.4 | 0 | 0 | > 10 | > 10 | > 10 | > 10 | > 10
7 | CCC(=O)NC[C@H](Cc1ccc(OCCc2nc(-c3ccccc3)oc2C)cc1)N/C(C)=C\C(=O)c1ccc(C(F)(F)F)cc1 [GW-6471] | 96.6 | 104 | 101 | 100 | 95.4 | 101 | 94.7 | 103 | 97.4 | 102 | 94.5 | 102 | 106 | 97.8 | 93.6 | 98.6 | 97.6 | 96.1 | 89.3 | 94.8 | 97.3 | 99.5 | 93.8 | 101 | 109 | 0 | 0 | 0 | 0 | 0 | > 10 | > 10 | > 10 | > 10 | > 10
